Measured values taken from patent publication EP2264010A1, “Hetarylamidines” (Bayer CropScience AG, priority 2009, dated 2010).

How the values were obtained:
ALOMY = assay: Herbicidal activity, test type PE; assay type: in vivo; settings: TEST-TYP PE, 320 G/HA
VERPE [1] = assay: Herbicidal activity, test type PO; assay type: in vivo; settings: TEST-TYP PO, 80 G/HA
MATIN = assay: Herbicidal activity, test type PE; assay type: in vivo; settings: TEST-TYP PE; for pest or weed control at 320 g/ha: read-out: herbizide Wirkung MATIN
SETVI = assay: Herbicidal activity, test type PE; assay type: in vivo; settings: TEST-TYP PE, read-out: herbizide Wirkung SETVI
AMARE [2] = assay: Herbicidal activity, test type PO; assay type: in vivo; settings: TEST-TYP PO, 80 G/HA
VERPE [3] = assay: Herbicidal activity, test type PE; assay type: in vivo; settings: TEST-TYP PE, read-out: herbizide Wirkung VERPE
STEME = assay: Herbicidal activity, test type PE; assay type: in vivo; settings: TEST-TYP PE, read-out: herbizide Wirkung STEME
VIOTR [4] = assay: Herbicidal activity, test type PO; assay type: in vivo; settings: TEST-TYP PO, 80 G/HA
Tetranychus urticae = assay: Tetranychus test, OP-resistant (TETRUR spray treatment); assay type: in vivo; settings: topical, bean leaf discs (Phaseolus vulgaris), read-out: Wirkung
Text: Zur Herstellung einer zweckmäßigen Wirkstoffzubereitung vermischt man 1 Gewichtsteil Wirkstoff mit den angegebenen Mengen Lösungsmittel und Emulgator und verdünnt das Konzentrat mit emulgatorhaltigem Wasser auf die gewünschte Konzentration.
Bohnenblattscheiben (Phaseolus vulgaris), die von allen Stadien der Gemeinen Spinnmilbe (Tetranychus urticae) befallen sind, werden mit einer Wirkstoffzubereitung der gewünschten Konzentration gespritzt.
Nach der gewünschten Zeit wird die Wirkung in % bestimmt. Dabei bedeutet 100 %, dass alle Spinnmilben abgetötet wurden; 0 % bedeutet, dass keine Spinnmilben abgetötet wurden.

VIOTR [5] = assay: Herbicidal activity, test type PE; assay type: in vivo; settings: TEST-TYP PE; for pest or weed control at 320 g/ha: read-out: herbizide Wirkung VIOTR
AMARE [6] = assay: Herbicidal activity, test type PE; assay type: in vivo; settings: TEST-TYP PE; for pest or weed control at 320 g/ha: Amaranthus retroflexus, read-out: herbizide Wirkung AMARE
PHBPU = assay: Herbicidal activity, test type PO; assay type: in vivo; settings: TEST-TYP PO, 80 G/HA
ECHCG = assay: Herbicidal activity, test type PE; assay type: in vivo; settings: TEST-TYP PE, 320 G/HA
[7] = logP by HPLC on reversed-phase columns (C 18), EEC Directive 79/831 Annex V.A8; assay type: physicochemical; settings: c18 reversed-phase hplc, reversed-phase (C 18), read-out: log p
Text: Die Messung der logP Werte erfolgte gemäß EEC Directive 79/831 Annex V.A8 durch HPLC (High Performance Liquid Chromatography) an reversed-phase Säulen (C 18), mit der nachfolgenden Methode: […]

LOLMU = assay: Herbicidal activity, test type PE; assay type: in vivo; settings: TEST-TYP PE, read-out: herbizide Wirkung LOLMU
CYPES = assay: Herbicidal activity, test type PE; assay type: in vivo; settings: TEST-TYP PE, 320 G/HA

Row | Structure (SMILES) | herbizide Wirkung ALOMY (ALOMY) | herbizide Wirkung VERPE (VERPE [1]) | pest or weed control at 320 g/ha (MATIN) | pest or weed control at 320 g/ha (SETVI) | herbizide Wirkung AMARE (AMARE [2]) | pest or weed control at 320 g/ha (VERPE [3]) | pest or weed control at 320 g/ha (STEME) | herbizide Wirkung VIOTR (VIOTR [4]) | mortality at 500 g/ha, 500 g/ha (Tetranychus urticae) | pest or weed control at 320 g/ha (VIOTR [5]) | pest or weed control at 320 g/ha (AMARE [6]) | herbizide Wirkung MATIN (MATIN; 320 G/HA) | herbizide Wirkung PHBPU (PHBPU) | herbizide Wirkung VIOTR (VIOTR [5]; 320 G/HA) | herbizide Wirkung AMARE (AMARE [6]; 320 G/HA) | herbizide Wirkung ECHCG (ECHCG) | chromatographic logP [7] | pest or weed control at 320 g/ha (LOLMU) | herbizide Wirkung CYPES (CYPES)
1 | CCN(C)C=Nc1ncc(Cl)cc1-c1cccc(C(F)(F)F)c1 [compound 33] | 80 | 80 | 80% | 80% | 80 | 100% | 80% | 90 | > 80% | 100% | 100% | – | – | – | – | – | – | – | –
2 | Cc1cc(-c2ccc(F)c(C(F)(F)F)c2)cnc1N=CN(C)C [compound 181] | – | 80 | – | – | 80 | – | – | – | – | – | – | 90 | 90 | 90 | 100 | – | – | – | –
3 | CCN(C)C=Nc1ncc(Cl)cc1-c1ccc(F)c(C(F)(F)F)c1 [compound 14] | 90 | – | 100% | 100% | – | 90% | 85% | – | – | 90% | 90% | – | – | – | – | 80 | 2.21 | 100% | –
4 | CCN(C)C=Nc1ncc(Cl)cc1-c1ccc(C(F)(F)F)c(Cl)c1 [compound 24] | – | – | – | – | – | – | – | – | > 80% | – | – | – | – | – | – | – | 2.88 | – | –
5 | CCN(C)C=Nc1ncc(-c2ccc(F)c(C(F)(F)F)c2)cc1C [compound 66] | 80 | – | 90% | 100% | – | 90% | 90% | 80 | – | 90% | 90% | – | 80 | – | – | 90 | – | 90% | –
6 | FC(F)(F)c1cccc(-c2cc(Cl)cnc2N=CN2CCCC2)c1 [compound 38] | – | – | – | 90% | – | – | – | – | – | – | 80% | – | – | – | – | – | – | – | 100
7 | CCN(C=Nc1ncc(Cl)cc1-c1cccc(C(F)(F)F)c1)CC [compound 36] | – | – | – | 90% | – | 90% | – | – | – | 100% | – | – | – | – | – | – | – | 80% | 100
